Experimental data reported in ChEMBL document CHEMBL3045426, “Synthesis, Antiviral and Antibacterial Activities of Isatin Mannich Bases” (Med Chem Res, 2005).
Converted amounts (≈) assume the structure as drawn.

System: Vibrio cholerae
Assay: Antimicrobial activity against Vibrio cholerae 01 after 18 to 20 hr by agar dilution method
Type: functional
Details: 1
In the case of `COc1cc(Cc2cnc(/N=C3\C(=O)N(CN4CCN(C(=O)c5ccc(F)cc5)CC4)c4ccc(Cl)cc43)nc2N)cc(OC)c1OC`, the MIC is reported as 39.1 µg/mL (≈ 0.0579 mM).

System: Priestia megaterium
Assay: Antimicrobial activity against Bacillus megaterium after 18 to 20 hr by agar dilution method
Type: functional
Details: not given
With `COc1cc(Cc2cnc(/N=C3\C(=O)N(CN4CCN(C(=O)c5ccc(F)cc5)CC4)c4ccc(Cl)cc43)nc2N)cc(OC)c1OC` the MIC was 2500 µg/mL (≈ 3.71 mM).

System: Enterobacter
Assay: Antimicrobial activity against Enterobacter after 18 to 20 hr by agar dilution method
Type: functional
Details: not given
`COc1cc(Cc2cnc(/N=C3\C(=O)N(CN4CCN(C(=O)c5ccc(F)cc5)CC4)c4ccc(Cl)cc43)nc2N)cc(OC)c1OC` showed an MIC of 625 µg/mL (≈ 0.927 mM).

System: Citrobacter freundii
Assay: Antimicrobial activity against Citrobacter freundii after 18 to 20 hr by agar dilution method
Type: functional
Details: not given
With `COc1cc(Cc2cnc(/N=C3\C(=O)N(CN4CCN(C(=O)c5ccc(F)cc5)CC4)c4ccc(Cl)cc43)nc2N)cc(OC)c1OC` the MIC was 2500 µg/mL (≈ 3.71 mM).

System: Salmonella enteritidis
Assay: Antimicrobial activity against Salmonella enterica subsp. enterica serovar Enteritidis after 18 to 20 hr by agar dilution method
Type: functional
Details: not given
With `COc1cc(Cc2cnc(/N=C3\C(=O)N(CN4CCN(C(=O)c5ccc(F)cc5)CC4)c4ccc(Cl)cc43)nc2N)cc(OC)c1OC` the MIC was 2500 µg/mL (≈ 3.71 mM).

System: Salmonella typhimurium
Assay: Antimicrobial activity against Salmonella enterica subsp. enterica serovar Typhimurium after 18 to 20 hr by agar dilution method
Type: functional
Details: not given
`COc1cc(Cc2cnc(/N=C3\C(=O)N(CN4CCN(C(=O)c5ccc(F)cc5)CC4)c4ccc(Cl)cc43)nc2N)cc(OC)c1OC` gave an MIC of 2500 µg/mL (≈ 3.71 mM).

System: Proteus mirabilis
Assay: Antimicrobial activity against Proteus mirabilis after 18 to 20 hr by agar dilution method
Type: functional
Details: not given
`COc1cc(Cc2cnc(/N=C3\C(=O)N(CN4CCN(C(=O)c5ccc(F)cc5)CC4)c4ccc(Cl)cc43)nc2N)cc(OC)c1OC` showed an MIC of 2500 µg/mL (≈ 3.71 mM).

System: Proteus vulgaris
Assay: Antimicrobial activity against Proteus vulgaris after 18 to 20 hr by agar dilution method
Type: functional
Details: not given
In the case of `COc1cc(Cc2cnc(/N=C3\C(=O)N(CN4CCN(C(=O)c5ccc(F)cc5)CC4)c4ccc(Cl)cc43)nc2N)cc(OC)c1OC`, the MIC is reported as 2500 µg/mL (≈ 3.71 mM).

System: Edwardsiella tarda
Assay: Antimicrobial activity against Edwardsiella tarda after 18 to 20 hr by agar dilution method
Type: functional
Details: not given
Compound `COc1cc(Cc2cnc(/N=C3\C(=O)N(CN4CCN(C(=O)c5ccc(F)cc5)CC4)c4ccc(Cl)cc43)nc2N)cc(OC)c1OC` has an MIC of 2500 µg/mL (≈ 3.71 mM).

System: Escherichia coli
Assay: Antimicrobial activity against Escherichia coli NCTC 10418 after 18 to 20 hr by agar dilution method
Type: functional
Details: not given
Work on `COc1cc(Cc2cnc(/N=C3\C(=O)N(CN4CCN(C(=O)c5ccc(F)cc5)CC4)c4ccc(Cl)cc43)nc2N)cc(OC)c1OC` yielded an MIC of 2500 µg/mL (≈ 3.71 mM).

System: Salmonella typhi
Assay: Antimicrobial activity against Salmonella enterica subsp. enterica serovar Typhi after 18 to 20 hr by agar dilution method
Type: functional
Details: not given
With `COc1cc(Cc2cnc(/N=C3\C(=O)N(CN4CCN(C(=O)c5ccc(F)cc5)CC4)c4ccc(Cl)cc43)nc2N)cc(OC)c1OC` the MIC was 2500 µg/mL (≈ 3.71 mM).

System: Salmonella paratyphi
Assay: Antimicrobial activity against Salmonella enterica subsp. enterica serovar Paratyphi A after 18 to 20 hr by agar dilution method
Type: functional
Details: not given
With `COc1cc(Cc2cnc(/N=C3\C(=O)N(CN4CCN(C(=O)c5ccc(F)cc5)CC4)c4ccc(Cl)cc43)nc2N)cc(OC)c1OC` the MIC was 625 µg/mL (≈ 0.927 mM).

System: Vibrio parahaemolyticus
Assay: Antimicrobial activity against Vibrio parahaemolyticus after 18 to 20 hr by agar dilution method
Type: functional
Details: not given
With `COc1cc(Cc2cnc(/N=C3\C(=O)N(CN4CCN(C(=O)c5ccc(F)cc5)CC4)c4ccc(Cl)cc43)nc2N)cc(OC)c1OC` the MIC was 4.88 µg/mL (≈ 0.00724 mM).

System: Vibrio cholerae
Assay: Antimicrobial activity against Vibrio cholerae 0139 after 18 to 20 hr by agar dilution method
Type: functional
Details: 139
Compound `COc1cc(Cc2cnc(/N=C3\C(=O)N(CN4CCN(C(=O)c5ccc(F)cc5)CC4)c4ccc(Cl)cc43)nc2N)cc(OC)c1OC` has an MIC of 1250 µg/mL (≈ 1.85 mM).

System: Vibrio fluvialis
Assay: Antimicrobial activity against Vibrio fluvialis after 18 to 20 hr by agar dilution method
Type: functional
Details: not given
Compound `COc1cc(Cc2cnc(/N=C3\C(=O)N(CN4CCN(C(=O)c5ccc(F)cc5)CC4)c4ccc(Cl)cc43)nc2N)cc(OC)c1OC` has an MIC of 2500 µg/mL (≈ 3.71 mM).

System: Vibrio mimicus
Assay: Antimicrobial activity against Vibrio mimicus after 18 to 20 hr by agar dilution method
Type: functional
Details: not given
Work on `COc1cc(Cc2cnc(/N=C3\C(=O)N(CN4CCN(C(=O)c5ccc(F)cc5)CC4)c4ccc(Cl)cc43)nc2N)cc(OC)c1OC` yielded an MIC of 2.44 µg/mL (≈ 0.00362 mM).

System: Pseudomonas aeruginosa
Assay: Antimicrobial activity against Pseudomonas aeruginosa after 18 to 20 hr by agar dilution method
Type: functional
Details: not given
For `COc1cc(Cc2cnc(/N=C3\C(=O)N(CN4CCN(C(=O)c5ccc(F)cc5)CC4)c4ccc(Cl)cc43)nc2N)cc(OC)c1OC`, the MIC was 2500 µg/mL (≈ 3.71 mM).

System: Staphylococcus aureus
Assay: Antimicrobial activity against Staphylococcus aureus after 18 to 20 hr by agar dilution method
Type: functional
Details: not given
For `COc1cc(Cc2cnc(/N=C3\C(=O)N(CN4CCN(C(=O)c5ccc(F)cc5)CC4)c4ccc(Cl)cc43)nc2N)cc(OC)c1OC`, the MIC was 2500 µg/mL (≈ 3.71 mM).

System: Morganella morganii
Assay: Antimicrobial activity against Morganella morganii after 18 to 20 hr by agar dilution method
Type: functional
Details: not given
In the case of `COc1cc(Cc2cnc(/N=C3\C(=O)N(CN4CCN(C(=O)c5ccc(F)cc5)CC4)c4ccc(Cl)cc43)nc2N)cc(OC)c1OC`, the MIC is reported as 2500 µg/mL (≈ 3.71 mM).

System: Shigella boydii
Assay: Antimicrobial activity against Shigella boydii after 18 to 20 hr by agar dilution method
Type: functional
Details: not given
Compound `COc1cc(Cc2cnc(/N=C3\C(=O)N(CN4CCN(C(=O)c5ccc(F)cc5)CC4)c4ccc(Cl)cc43)nc2N)cc(OC)c1OC` has an MIC of 39.1 µg/mL (≈ 0.0579 mM).

System: Plesiomonas
Assay: Antimicrobial activity against Plesiomonas after 18 to 20 hr by agar dilution method
Type: functional
Details: not given
`COc1cc(Cc2cnc(/N=C3\C(=O)N(CN4CCN(C(=O)c5ccc(F)cc5)CC4)c4ccc(Cl)cc43)nc2N)cc(OC)c1OC` gave an MIC of 9.76 µg/mL (≈ 0.0145 mM).

System: Shigella sonnei
Assay: Antimicrobial activity against Shigella sonnei after 18 to 20 hr by agar dilution method
Type: functional
Details: not given
For `COc1cc(Cc2cnc(/N=C3\C(=O)N(CN4CCN(C(=O)c5ccc(F)cc5)CC4)c4ccc(Cl)cc43)nc2N)cc(OC)c1OC`, the MIC was 2500 µg/mL (≈ 3.71 mM).

System: Klebsiella pneumoniae
Assay: Antimicrobial activity against Klebsiella pneumoniae after 18 to 20 hr by agar dilution method
Type: functional
Details: not given
For `COc1cc(Cc2cnc(/N=C3\C(=O)N(CN4CCN(C(=O)c5ccc(F)cc5)CC4)c4ccc(Cl)cc43)nc2N)cc(OC)c1OC`, the MIC was 2500 µg/mL (≈ 3.71 mM).

System: Klebsiella pneumoniae
Assay: Antimicrobial activity against Klebsiella pneumoniae subsp. ozaenae after 18 to 20 hr by agar dilution method
Type: functional
Details: not given
`COc1cc(Cc2cnc(/N=C3\C(=O)N(CN4CCN(C(=O)c5ccc(F)cc5)CC4)c4ccc(Cl)cc43)nc2N)cc(OC)c1OC` gave an MIC of 2500 µg/mL (≈ 3.71 mM).

System: Mycobacterium tuberculosis
Assay: Antimycobacterial activity against Mycobacterium tuberculosis H37Rv ATCC 27294 at 6.25 ug/ml by MABA
Type: functional
Details: not given
Work on `COc1cc(Cc2cnc(/N=C3\C(=O)N(CN4CCN(C(=O)c5ccc(F)cc5)CC4)c4ccc(Cl)cc43)nc2N)cc(OC)c1OC` yielded an inhibition at 6.25 µg/mL of 38%.

System: not listed separately
Assay: Cytotoxicity against Homo sapiens (human) HuH7 cells assessed as cell growth at 50 ug/ml after 3 days by Neutral red assay
Type: cell-based, Huh-7
Details: read-out: Activity
`COc1cc(Cc2cnc(/N=C3\C(=O)N(CN4CCN(C(=O)c5ccc(F)cc5)CC4)c4ccc(Cl)cc43)nc2N)cc(OC)c1OC` gave a viability at 72 h, 50 ug/ml of 71%.

System: not listed separately
Assay: Cytotoxicity against Homo sapiens (human) CEM cells after 5 days by MTT assay
Type: cell-based
Details: CEM cells (CCRF-CEM)
Compound `COc1cc(Cc2cnc(/N=C3\C(=O)N(CN4CCN(C(=O)c5ccc(F)cc5)CC4)c4ccc(Cl)cc43)nc2N)cc(OC)c1OC` has a CC50 at 120 h of 51 µg/mL (≈ 0.0757 mM).

System: Human immunodeficiency virus 1
Assay: Antiviral activity against Human immunodeficiency virus 1 IIIB infected CEM cells assessed as protection against viral infection after 6 days by XTT assay
Type: functional, CCRF-CEM
Parameters: concentration or dose not given beside the values
Details: not given
`COc1cc(Cc2cnc(/N=C3\C(=O)N(CN4CCN(C(=O)c5ccc(F)cc5)CC4)c4ccc(Cl)cc43)nc2N)cc(OC)c1OC` gave an Activity of 23.38%.

System: Human immunodeficiency virus 1
Assay: Antiviral activity against Human immunodeficiency virus 1 IIIB infected CEM cells assessed as inhibition of virus-induced cytopathicity after 6 days by XTT assay
Type: functional, organism-based
Details: CCRF-CEM, 144 h
`COc1cc(Cc2cnc(/N=C3\C(=O)N(CN4CCN(C(=O)c5ccc(F)cc5)CC4)c4ccc(Cl)cc43)nc2N)cc(OC)c1OC` gave an EC50 of over 51 µg/mL.

System: not listed separately
Assay: Cytotoxicity against Homo sapiens (human) MT4 cells after 5 days by MTT assay
Type: cell-based
Details: not given
Work on `COc1cc(Cc2cnc(/N=C3\C(=O)N(CN4CCN(C(=O)c5ccc(F)cc5)CC4)c4ccc(Cl)cc43)nc2N)cc(OC)c1OC` yielded a CC50 at 120 h of 60.6 µg/mL (≈ 0.0899 mM).

System: Human immunodeficiency virus 1
Assay: Antiviral activity against Human immunodeficiency virus 1 IIIB infected MT4 cells assessed as inhibition of virus-induced cytopathicity after 5 days by MTT assay
Type: functional, organism-based
Details: MT4, 120 h
Work on `COc1cc(Cc2cnc(/N=C3\C(=O)N(CN4CCN(C(=O)c5ccc(F)cc5)CC4)c4ccc(Cl)cc43)nc2N)cc(OC)c1OC` yielded an EC50 of over 60.6 µg/mL.

System: Hepatitis C virus
Assay: Antiviral activity against Hepatitis C virus BM4-5 infected in Huh7 cells assessed as inhibition of viral RNA replication by phosphor screening method
Type: functional, Hepacivirus hominis, Huh-7
Details: not given
In the case of `COc1cc(Cc2cnc(/N=C3\C(=O)N(CN4CCN(C(=O)c5ccc(F)cc5)CC4)c4ccc(Cl)cc43)nc2N)cc(OC)c1OC`, the “inhibition (INH)” value is reported as 91%.

System: Human immunodeficiency virus 1
Assay: Antiviral activity against Human immunodeficiency virus 1 IIIB infected MT4 cells assessed as protection against viral infection after 5 days by MTT assay
Type: functional
Parameters: concentration or dose not given beside the values
Details: not given
`COc1cc(Cc2cnc(/N=C3\C(=O)N(CN4CCN(C(=O)c5ccc(F)cc5)CC4)c4ccc(Cl)cc43)nc2N)cc(OC)c1OC` gave an Activity of 30.2%.
